According to paper PMC11206988, “Study on the Effect of Pharmaceutical Excipient PEG400 on the Pharmacokinetics of Baicalin in Cells Based on MRP2, MRP3, and BCRP Efflux Transporters” (Pharmaceutics, 2024):

Legend:
HepG2 cells = test: Pharmacokinetic study of baicalin in HepG2 cells (intracellular concentrations by UPLC-MS/MS); assay type: in vitro ADME, human; details: for AUC0–t increase compared with the control group: HepG2 cells
Procedure: (§1) The samples were quantified by UPLC-MS/MS, which consisted of a Dionex Ultimate 3000 UPLC system (Thermo Fisher Scientific, Waltham, MA, USA) and a triple quadrupole tandem mass spectrometer (Thermo Fisher Scientific, Waltham, MA, USA). The mass spectrometry was performed using an ESI ion source and in positive ion mode. The chromatograms are shown in Figure S1 of the Supplementary Materials. The samples were analyzed by a Waters XBridge BEH C18 column (2.1 × 100 mm). Mobile phase A consists of acetonitrile, while mobile phase B consists of water containing 0.1% formic acid. The elution program was as follows: B was initially 90%, 0 to 9 min B decreased from 90% to 27%, and 9.1 min to 12 min increased from 27% to 90% B. The flow rate of the mobile phase was 0.3 mL/min, the temperature of the automatic injector was 5 °C, and the injection volume was 10 μL. The m/z for BG and B6G was 447 → 271, for baicalein m/z 271 → 123, and for genistein (IS) m/z 271 → 153. Other mass spectrometry parameters included sheath gas (Arb) pressure, 20 psi, and auxiliary gas (Arb) pressure, 2 psi; source voltage, 4.8 KV, and capillary voltage, 2.5 KV; and ion-transfer-tube temperature, 375 °C, and atomization temperature, 275 °C.
(§2) HepG2 cells were cultured at a density of 1×10^5 cells/mL in 12-well plates for 24 h to facilitate the conduct of cellular pharmacokinetic experiments. The old medium was aspirated and discarded, the wells were rinsed twice with PBS, and 1 mL of 100 μM baicalin and baicalin + PEG400 (0.25%, 0.5%, and 1%) was added into 12-well plates to initiate the timer. The culture was terminated after 0.25 h, 0.5 h, 1 h, 2 h, 4 h, 6 h, 8 h, 10 h, 12 h, and 24 h, respectively. Upon reaching the designated time for administration, the cell culture medium was removed, and the wells were washed with 1 mL of cold PBS solution. Subsequently, 240 μL of ultra-pure water were added to each well, and the sample was stored at −80 °C until analysis. The sample was subjected to sonication in an ice bath for 10 min in order to lyse the cells, thereby enabling the determination of the accumulated drug concentration within the cells. Subsequently, 20 μL of the cell lysate was collected, and the protein concentration was quantified using a BCA kit for normalization.
(§3) After repeated freeze-thaw lysis, 100 μL of cell samples were taken, and 300 μL of 0.2% formic acid acetonitrile (containing 200 ng/mL genistein) were added to the vortex for 10 min to precipitate proteins and then centrifuged at 14,000 r/min for 10 min. Then the supernatant was blown dry under nitrogen at 40 °C and then reconstituted with 200 μL of methanol and centrifuged at 14,000 rpm for 10 min. The supernatant was subjected to UPLC-MS/MS analysis.

[1] = as above; assay type: in vitro ADME, human; details: human, intracellular; for AUC(0-t) at 100 μM / Cmax at 100 μM / half-life at 100 μM: HepG2 cells
Procedure: as §1, §2, §3

[2] = HepG2 cells given 100 μM baicalin + H PEG400 (1%)
[3] = HepG2 cells given 100 μM baicalin + L PEG400 (0.25%)
[4] = HepG2 cells given 100 μM baicalin + M PEG400 (0.5%)
[5] = HepG2 cells given 100 μM baicalin alone (group BG, control)

Row | Compound | AUC0–t increase compared with the control group (HepG2 cells; baicalin + high PEG400 (1%) vs baicalin alone) [fold] | AUC0–t increase compared with the control group (HepG2 cells; baicalin + low PEG400 (0.25%) vs baicalin alone) [fold] | AUC0–t increase compared with the control group (HepG2 cells; baicalin + medium PEG400 (0.5%) vs baicalin alone) [fold] | AUC(0-t) at 100 μM [1, 2] [ng·h/mL] | Cmax at 100 μM [1, 2] [ng/mL] | half-life at 100 μM [1, 2] [h] | AUC(0-t) at 100 μM [1, 3] [ng·h/mL] | Cmax at 100 μM [1, 3] [ng/mL] | half-life at 100 μM [1, 3] [h] | AUC(0-t) at 100 μM [1, 4] [ng·h/mL] | Cmax at 100 μM [1, 4] [ng/mL] | half-life at 100 μM [1, 4] [h] | Cmax at 100 μM [1, 5] [ng/mL] | half-life at 100 μM [1, 5] [h] | AUC(0-t) at 100 μM ([1]; HepG2 cells given 100 μM baicalin alone (group BG, control), 0.25-24 h) [ng·h/mL] | Tmax at 100 μM [1, 5] [h] | Tmax (HepG2 cells; human) [h] | t1/2 (HepG2 cells; human) [h]
1 | O=c1cc(-c2ccccc2)oc2cc(O)c(O)c(O)c12 [B, baicalein] | 1.27 | 1.26 | 1.23 | 5640 ± 70 | 510 ± 10 | 6.43 ± 1.85 | 5610 ± 90 | 550 ± 70 | 3.73 ± 0.54 | 5480 ± 118 | 530 ± 60 | 9.4 ± 8.73 | 350 ± 120 | 17.6 ± 7.99 | 4450 ± 60 | 6 |  | 
2 | O=C(O)[C@H]1O[C@@H](Oc2c(O)cc3oc(-c4ccccc4)cc(=O)c3c2O)[C@H](O)[C@@H](O)[C@@H]1O [B6G, Baicalein-6-O-β-D-glucuronide] |  |  |  |  |  |  |  |  |  |  |  |  |  |  |  |  | 6.00 | 5.19 ± 2.37
